Series [1] is described as follows: Selectivity index, ratio of IC50 for rat L6 cells to IC50 for bloodstream form of Trypanosoma brucei rhodesiense STIB 900. The format is toxicity, cell-based. The conditions noted are these: read-out: Ratio IC50.
Series [2] concerns Trypanosoma brucei rhodesiense. Put plainly: Antitrypanosomal activity against bloodstream form of Trypanosoma brucei rhodesiense STIB 900 by Alamar Blue assay. It counts as functional, organism-based. A general note: Alamar Blue is a resazurin reagent that responds to reducing activity.
In a further series the test system is L6. The series can be described thus: Cytotoxicity against rat L6 cells by Alamar Blue assay. It counts as cell-based.

For `C[C@H]1[C@H](C)CC(=O)O[C@]2(C)CC[C@]3(C)C(=C[C@@H](O)[C@@H]4[C@@]5(C)[C@H](O)CC(=O)C(C)(C)[C@@H]5CC[C@]43C)[C@H]12`, the selectivity ratio in series [1] was 33.1. Also, the results for the IC50 (in series [2]; in the series on L6) were 5.6 µM and more than 185 µM, respectively.

These data come from ChEMBL document CHEMBL2417546, “Antitrypanosomal triterpenoid with an ε-lactone E-ring from Salvia urmiensis” (J Nat Prod, 2013).
